This note sets out measurements from PMC11564776, “Enzyme stabilisation due to incorporation of a fluorinated non-natural amino acid at the protein surface” (Scientific Reports, 2024).

The target in the test is T1, WT transketolase (WT TK) (Escherichia coli, UniProt P27302).
T1 construct: gene tktA; full length, N-terminal His6 tag (plasmid pQR791), Ni-NTA purified, tag cleavage not mentioned; homodimer of 73-74 kDa monomers; WT expressed in E. coli XL10-Gold, variants in E. coli C321.dA.exp
The test can be described thus: HPLC of erythrulose formation, initial velocities, Michaelis-Menten fit. Format: biochemical. Particulars: 50 mM HPA, 1.36 mM ThDP, 5.1 mM MgCl2, 33 mM Tris.HCl, pH 7.0, assay 21 °C, pre-incubated 15 min at 21 °C, standard error in parentheses, read-out: Km (GA). From the text:
HPLC of erythrulose formation, initial velocities, Michaelis-Menten fit on WT transketolase (WT TK)

SMILES strings stand for the structures. Read-outs that look alike come from different tables or passages of the source.

T1 sequence (P27302 whole entry): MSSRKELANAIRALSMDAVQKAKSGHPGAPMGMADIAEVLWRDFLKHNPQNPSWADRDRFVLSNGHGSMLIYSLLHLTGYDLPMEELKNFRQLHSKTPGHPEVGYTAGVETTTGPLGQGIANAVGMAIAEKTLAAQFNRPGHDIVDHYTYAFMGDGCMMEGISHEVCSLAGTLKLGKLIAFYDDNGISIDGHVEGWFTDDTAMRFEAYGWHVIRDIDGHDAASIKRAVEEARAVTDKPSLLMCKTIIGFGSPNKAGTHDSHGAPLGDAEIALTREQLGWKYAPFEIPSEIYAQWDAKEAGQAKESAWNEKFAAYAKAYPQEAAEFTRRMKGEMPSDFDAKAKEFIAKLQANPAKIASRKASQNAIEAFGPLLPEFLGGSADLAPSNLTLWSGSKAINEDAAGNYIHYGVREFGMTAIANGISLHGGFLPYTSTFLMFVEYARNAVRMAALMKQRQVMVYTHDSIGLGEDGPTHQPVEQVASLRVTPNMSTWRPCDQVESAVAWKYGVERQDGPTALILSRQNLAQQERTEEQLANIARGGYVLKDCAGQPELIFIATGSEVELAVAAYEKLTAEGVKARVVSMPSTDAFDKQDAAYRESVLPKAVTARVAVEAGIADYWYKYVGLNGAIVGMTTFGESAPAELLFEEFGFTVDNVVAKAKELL

As for `O=CCO` [GA], the Km (commonly the substrate concentration at which the rate is half of its maximum) (non-natural amino acid at 316, 84% incorporation with 9% K316F) stood at 14 mM and the Km (non-natural amino acid at 316, almost 100% incorporation) came out at 18 mM.
